Experimental data taken from ChEMBL document CHEMBL1201862, “PubChem BioAssay data set” (2004).
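Results reflect a 48-hour exposure of cells in 96-well plates to compound at five concentrations. The concentration for 50% growth inhibition is given as GI50.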 Activity calls are given as the source filed them. Rule as the data show it: active = GI50 up to about 1.1 µM and inactive = higher.

Tests used:
Experiment in all cases: NCI-60 cell line screen, 48 h
KM-20L2 = tested on: KM-20L2
DLD-1 = tested on: DLD-1
M19-MEL = tested on: M19-MEL
SNB-78 = tested on: SNB-78
DMS-114 = tested on: DMS-114
HOP-18 = tested on: HOP-18
LXFL 529 = tested on: LXFL 529
XF498 = tested on: XF498
RXF 631 = tested on: RXF 631

Measured: GI50

O=C1[C@H]2ON(c3ccccc3)C(c3ccc(Cl)cc3Cl)[C@H]2C(=O)N1c1ccc(Cc2ccc(N3C(=O)[C@@H]4ON(c5ccccc5)C(c5ccc(Cl)cc5Cl)[C@@H]4C3=O)cc2)cc1 (some centres undefined)
inactive: KM-20L2 > 100 µM | DLD-1 > 100 µM | M19-MEL > 100 µM | SNB-78 > 100 µM | DMS-114 > 100 µM | HOP-18 > 100 µM | LXFL 529 > 100 µM

O=C(c1ccc(Cl)cc1)c1ccc(OCCCOc2ccc(C(=O)c3ccc(Cl)cc3)cc2Cl)c(Cl)c1
inactive: KM-20L2 > 100 µM | XF498 > 100 µM | DLD-1 > 100 µM | M19-MEL > 100 µM | SNB-78 > 100 µM | DMS-114 > 100 µM | RXF 631 > 100 µM | LXFL 529 > 100 µM

COc1cc2c(cc1OC)[C@H]1C(COC(=O)Nc3ccccc3)CN1CC2 (some centres undefined)
inactive: DLD-1 > 100 µM | M19-MEL > 100 µM | HOP-18 > 100 µM | LXFL 529 > 100 µM

Cc1cc2oc(=O)[nH]c(=S)c2c(C)c1C
inactive: KM-20L2 > 100 µM | XF498 > 100 µM | M19-MEL > 100 µM | DMS-114 > 100 µM | HOP-18 > 100 µM | LXFL 529 > 100 µM

C/C(=N\N=C(N)N)c1sc(-c2nc(C)c(/C(C)=N/N=C(N)N)s2)nc1C
inactive: KM-20L2 > 100 µM | XF498 > 100 µM | DLD-1 > 51.2 µM | M19-MEL > 100 µM | SNB-78 > 100 µM | HOP-18 > 100 µM | LXFL 529 > 88.3 µM

COc1cc(CC2c3cc(OC)c(OC)cc3CCN2C)ccc1O (centres undefined)
inactive: KM-20L2 > 100 µM | XF498 > 100 µM | DLD-1 > 100 µM | SNB-78 > 100 µM | HOP-18 > 100 µM | LXFL 529 > 100 µM

O[C@]12c3ccccc3C1CCCC2N1CCOCC1 (some centres undefined)
inactive: KM-20L2 > 100 µM | XF498 > 100 µM | M19-MEL > 100 µM | SNB-78 > 100 µM | DMS-114 > 100 µM | HOP-18 > 100 µM | LXFL 529 > 100 µM

C=C(C)C1Cc2c(cc(OC)c3c(=O)c4ccccc4n(C)c23)O1 (centres undefined)
inactive: KM-20L2 > 100 µM | XF498 > 100 µM | DLD-1 > 100 µM | M19-MEL 63.7 µM | SNB-78 > 100 µM | DMS-114 91.8 µM | HOP-18 > 100 µM | LXFL 529 > 100 µM

O=C(/C=C/c1ccc(O)cc1)c1ccc(O)cc1 [4,4'-DIHYDROXYCHALCONE]
inactive: KM-20L2 20.3 µM | XF498 19.3 µM | DLD-1 18 µM | M19-MEL 21.7 µM | SNB-78 45.2 µM | DMS-114 18.9 µM | HOP-18 35.2 µM

CSc1n[n+]2c(s1)SCCC2
inactive: XF498 > 100 µM | DLD-1 > 100 µM | M19-MEL > 100 µM | SNB-78 > 100 µM | DMS-114 62.5 µM | RXF 631 > 100 µM | HOP-18 42.7 µM | LXFL 529 > 100 µM

CCCCCCCCCCSC(=O)NC
inactive: KM-20L2 > 10 µM | XF498 21.3 µM | DLD-1 36.9 µM | M19-MEL 38.1 µM | HOP-18 63 µM | LXFL 529 49.4 µM

CCCCCCCCCCCCCCCCOCC(CN(C)CCN(C)C)OCCCCCCCCCCCCCCCC (centres undefined)
inactive: KM-20L2 > 100 µM | DLD-1 > 100 µM | M19-MEL > 100 µM | SNB-78 > 100 µM | DMS-114 > 100 µM | RXF 631 > 100 µM | HOP-18 > 100 µM | LXFL 529 > 100 µM

CCCCCCCCCCCCCCCCCC(=O)O[C@H](COC(=O)CCCCCCCCCCC)COC(=O)CCCCCCCCCCCCCCC
inactive: KM-20L2 > 100 µM | DLD-1 > 100 µM | M19-MEL > 100 µM | DMS-114 > 100 µM | RXF 631 > 100 µM | HOP-18 > 100 µM | LXFL 529 > 100 µM

NS(=O)(=O)c1ccc(Nc2c3ccccc3nc3c(C(=O)N4CCN(CCO)CC4)cccc23)cc1
inactive: KM-20L2 > 100 µM | XF498 > 100 µM | M19-MEL > 100 µM | SNB-78 69.3 µM | DMS-114 75.5 µM | HOP-18 > 100 µM | LXFL 529 60.3 µM

COC(=O)C(C(=O)C(=O)Nc1ccc(OC)cc1[N+](=O)[O-])c1nc2cc(C)c(C)cc2nc1O (centres undefined)
inactive: KM-20L2 > 100 µM | DLD-1 > 100 µM | M19-MEL > 100 µM | SNB-78 > 100 µM | DMS-114 > 100 µM | RXF 631 > 100 µM | HOP-18 > 100 µM | LXFL 529 > 100 µM

Clc1ccc(-n2nnc(C3=NCCN3)c2-c2ccccc2)cc1
inactive: KM-20L2 > 100 µM | XF498 > 100 µM | DLD-1 > 100 µM | M19-MEL > 100 µM | SNB-78 > 100 µM | DMS-114 > 100 µM | HOP-18 > 100 µM | LXFL 529 > 100 µM

CC(=O)COC(=O)CC(C)=O
inactive: KM-20L2 > 100 µM | XF498 > 100 µM | DLD-1 > 100 µM | M19-MEL > 100 µM | DMS-114 > 100 µM | RXF 631 > 100 µM | LXFL 529 > 100 µM
